# From ChEMBL document CHEMBL1201862, “PubChem BioAssay data set” (2004)
# Calls of active or inactive are those of the source.
# Experiments:
# [1] = alpha-synuclein stem-loop luciferase translation blockers – H4 neuroglioma cells, luminescence, confirmation (AID 1988); type: functional, cell-based
# [2] = luciferase reporter signal suppression in cells – H4 neuroglioma cells, luminescence, dose response (AID 1990); type: functional, cell-based
# [3] = system: J774.A1; assay: Confirmation of image-based Screening Assay for Inhibitors of Phagocytosis. [Related pubchem assays (depositor defined):AID1029, AID1643]; type: functional, cell-based; conditions: Mus musculus
# [4] = HEK-293T cell viability reduction – luminescence, B-cell screen hits, cytotoxicity control for BCR NF-kB inhibitor project, dose response (AID 489021); type: functional, cell-based;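 also: HEK-293T cells carrying an NF-kB luciferase reporter; cells exposed to compound for about 14 hours before viability readout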
# [5] = molecular target: T1, Tyrosine-protein phosphatase non-receptor type 22 (Homo sapiens, UniProt Q9Y2R2); type: functional
# [6] = molecular target: T1, Tyrosine-protein phosphatase non-receptor type 22; type: functional; remark: listed apart in the source
# [7] = molecular target: T2, Tyrosine-protein phosphatase non-receptor type 7 (Homo sapiens, UniProt P35236); type: functional
# T2 sequence (P35236 whole entry): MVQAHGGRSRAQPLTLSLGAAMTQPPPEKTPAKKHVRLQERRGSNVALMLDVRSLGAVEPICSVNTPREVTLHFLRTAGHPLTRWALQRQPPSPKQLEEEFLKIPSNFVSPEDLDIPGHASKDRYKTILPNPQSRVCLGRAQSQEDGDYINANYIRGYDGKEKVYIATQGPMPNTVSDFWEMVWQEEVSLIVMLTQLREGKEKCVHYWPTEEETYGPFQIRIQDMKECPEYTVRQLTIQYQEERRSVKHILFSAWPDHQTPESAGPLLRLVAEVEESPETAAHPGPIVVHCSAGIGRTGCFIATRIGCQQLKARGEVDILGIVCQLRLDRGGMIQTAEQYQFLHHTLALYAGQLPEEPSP
# [8] = molecular target: Eukaryotic translation initiation factor 4H (Homo sapiens, UniProt Q15056); assay: inhibitors of translation initiation factor eIF4H – SAR follow-up (AID 435011); type: functional
# [9] = molecular target: T3, Hexokinase HKDC1 (Homo sapiens, UniProt Q2TB90); assay: inhibition of HKDC1 glucose phosphorylation – biochemical, W721R variant, dose response (AID 504729); type: functional
# T3 sequence (Q2TB90 whole entry): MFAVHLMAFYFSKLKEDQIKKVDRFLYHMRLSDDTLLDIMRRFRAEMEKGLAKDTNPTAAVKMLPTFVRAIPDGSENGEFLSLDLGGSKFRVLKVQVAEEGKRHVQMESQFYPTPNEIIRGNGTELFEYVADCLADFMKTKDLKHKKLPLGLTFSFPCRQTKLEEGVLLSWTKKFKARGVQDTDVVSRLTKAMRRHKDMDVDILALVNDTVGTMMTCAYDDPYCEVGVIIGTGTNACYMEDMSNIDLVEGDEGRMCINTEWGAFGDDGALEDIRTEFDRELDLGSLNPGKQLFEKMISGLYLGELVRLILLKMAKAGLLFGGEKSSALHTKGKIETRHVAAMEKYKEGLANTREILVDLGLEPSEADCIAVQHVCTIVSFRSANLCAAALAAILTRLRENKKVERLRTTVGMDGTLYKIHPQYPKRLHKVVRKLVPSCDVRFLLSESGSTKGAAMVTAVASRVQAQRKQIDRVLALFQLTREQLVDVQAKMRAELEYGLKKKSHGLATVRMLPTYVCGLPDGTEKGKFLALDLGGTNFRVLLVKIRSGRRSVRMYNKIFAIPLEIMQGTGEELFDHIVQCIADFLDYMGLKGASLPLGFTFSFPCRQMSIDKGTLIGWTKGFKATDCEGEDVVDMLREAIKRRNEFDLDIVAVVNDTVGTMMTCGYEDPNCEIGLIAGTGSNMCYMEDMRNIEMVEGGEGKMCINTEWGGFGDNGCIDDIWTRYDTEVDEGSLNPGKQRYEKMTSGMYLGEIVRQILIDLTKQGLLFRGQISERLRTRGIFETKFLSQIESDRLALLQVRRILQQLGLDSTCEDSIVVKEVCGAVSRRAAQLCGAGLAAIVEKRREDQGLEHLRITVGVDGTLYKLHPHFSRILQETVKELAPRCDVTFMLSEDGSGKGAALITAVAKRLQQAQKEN
# [10] = molecular target: Polyadenylate-binding protein 1 (Homo sapiens, UniProt P11940); assay: PABP inhibition in translation initiation, SAR follow-up (AID 435018); type: functional
# [11] = molecular target: T4, RNA-binding protein pos-1 (Caenorhabditis elegans, UniProt G5EF15); assay: disruptors of C. elegans POS-1 RNA interaction – biochemical, fluorescence polarization, dose response (AID 1964);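 also: purified POS-1 fused to maltose binding protein made in E. coli; potency of compounds blocking POS-1 binding to fluorescent RNA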
# T4 sequence (G5EF15 whole entry): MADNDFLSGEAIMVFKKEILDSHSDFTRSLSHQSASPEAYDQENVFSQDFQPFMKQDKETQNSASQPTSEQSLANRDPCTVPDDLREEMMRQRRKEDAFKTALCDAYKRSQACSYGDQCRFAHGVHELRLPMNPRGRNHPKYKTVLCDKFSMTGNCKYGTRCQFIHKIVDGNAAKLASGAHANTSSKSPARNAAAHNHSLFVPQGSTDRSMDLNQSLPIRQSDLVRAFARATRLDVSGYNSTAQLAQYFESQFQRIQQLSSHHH
# [12] = molecular target: T5, ORF 73 (Human herpesvirus 8, UniProt O40947); assay: KSHV LANA DNA-binding disruption – biochemical, fluorescence polarization, cherry-picked samples, dose response (AID 504725); parameters: species or system Human gammaherpesvirus 8;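 also: fluorescence polarization of a labeled DNA duplex reporting LANA DNA binding; potency is for inhibitors that block LANA binding to the DNA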
# T5 sequence (O40947 whole entry): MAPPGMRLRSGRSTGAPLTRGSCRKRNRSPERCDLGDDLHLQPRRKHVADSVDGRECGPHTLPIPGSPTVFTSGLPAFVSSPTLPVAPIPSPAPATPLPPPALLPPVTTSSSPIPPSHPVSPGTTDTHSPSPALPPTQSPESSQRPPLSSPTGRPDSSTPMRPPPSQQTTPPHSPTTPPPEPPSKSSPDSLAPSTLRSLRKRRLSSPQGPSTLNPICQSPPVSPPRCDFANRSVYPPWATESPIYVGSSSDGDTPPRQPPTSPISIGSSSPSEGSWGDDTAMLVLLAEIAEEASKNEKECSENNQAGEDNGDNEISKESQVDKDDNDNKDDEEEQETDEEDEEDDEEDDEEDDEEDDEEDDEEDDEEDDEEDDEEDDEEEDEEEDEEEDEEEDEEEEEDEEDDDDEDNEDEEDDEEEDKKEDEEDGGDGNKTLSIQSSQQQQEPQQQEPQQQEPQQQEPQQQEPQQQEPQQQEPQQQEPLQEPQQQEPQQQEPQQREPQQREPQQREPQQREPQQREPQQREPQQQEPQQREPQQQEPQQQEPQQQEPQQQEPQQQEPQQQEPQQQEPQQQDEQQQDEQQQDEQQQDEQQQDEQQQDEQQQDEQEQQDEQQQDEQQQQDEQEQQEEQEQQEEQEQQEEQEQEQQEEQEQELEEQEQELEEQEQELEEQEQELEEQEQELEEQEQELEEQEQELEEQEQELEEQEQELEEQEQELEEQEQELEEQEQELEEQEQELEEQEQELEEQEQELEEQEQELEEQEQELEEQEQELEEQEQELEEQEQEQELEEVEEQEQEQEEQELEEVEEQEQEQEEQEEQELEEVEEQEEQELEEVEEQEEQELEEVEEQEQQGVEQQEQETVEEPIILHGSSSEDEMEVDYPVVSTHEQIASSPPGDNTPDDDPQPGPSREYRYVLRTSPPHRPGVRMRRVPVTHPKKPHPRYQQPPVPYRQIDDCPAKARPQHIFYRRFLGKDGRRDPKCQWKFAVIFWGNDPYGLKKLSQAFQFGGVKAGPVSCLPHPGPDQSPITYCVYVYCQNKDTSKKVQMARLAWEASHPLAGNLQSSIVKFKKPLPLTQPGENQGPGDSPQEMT
# [13] = system: Salmon testes DNA; assay: acridine orange-DNA binding displacement – biochemical, fluorescence polarization, cherry-picked samples, set 2, artefact control for KSHV LANA DNA-binding inhibitor project, dose response (AID 504727); parameters: species or system Salmonidae
# [14] = molecular target: T6, Zinc finger protein mex-5 (Caenorhabditis elegans, UniProt Q9XUB2); assay: potency of MEX-5 RNA-binding blockers – biochemical, C. elegans, fluorescence polarization, dose response (AID 1960)
# T6 sequence (Q9XUB2 whole entry): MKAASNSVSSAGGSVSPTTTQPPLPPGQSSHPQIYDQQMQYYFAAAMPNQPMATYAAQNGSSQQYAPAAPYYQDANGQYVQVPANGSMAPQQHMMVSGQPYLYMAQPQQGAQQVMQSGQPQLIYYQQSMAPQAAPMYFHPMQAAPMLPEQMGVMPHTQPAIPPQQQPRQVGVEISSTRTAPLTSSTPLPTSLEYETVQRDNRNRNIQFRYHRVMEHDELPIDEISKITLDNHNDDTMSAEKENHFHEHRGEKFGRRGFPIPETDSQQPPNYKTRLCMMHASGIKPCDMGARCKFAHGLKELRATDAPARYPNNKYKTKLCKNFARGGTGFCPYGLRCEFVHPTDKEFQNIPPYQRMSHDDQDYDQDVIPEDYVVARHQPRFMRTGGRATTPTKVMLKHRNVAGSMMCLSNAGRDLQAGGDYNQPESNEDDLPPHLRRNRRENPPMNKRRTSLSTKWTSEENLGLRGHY
# [15] = molecular target: Voltage-dependent T-type calcium channel subunit alpha-1H (Homo sapiens, UniProt O95180); assay: human CACNA1H calcium influx blockade – cell-based, synthetic library set 1, calcium flux (AID 493022); type: functional
# [16] = molecular target: T7, Kappa-type opioid receptor (Homo sapiens, UniProt P41145); assay: SAR analysis of Antagonists of the Kappa Opioid Receptor (KOR) using an Image-Based Assay - Set 4. [Related pubchem assays (depositor defined):AID1777, AID1785]; type: functional
# [17] = molecular target: T7, Kappa-type opioid receptor; assay: SAR analysis of small molecule antagonists of the kappa opioid receptor via a luminescent beta-arrestin assay - Set 4. [Related pubchem assays (depositor defined):AID1777, AID1778, AID1785, AID1786, AID1966, AID2133, AID2136, AID2285]; type: functional
# [18] = molecular target: Delta-type opioid receptor (Homo sapiens, UniProt P41143); assay: SAR Analysis of Antagonists of the DOR Receptor using an Image-Based Assay - Set 3. [Related pubchem assays (depositor defined):AID1777, AID1785]; type: functional;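 also: U2OS cells expressing DOR1 and beta-arrestin GFP stimulated with 100 nM SNC80; imaging of GFP-tagged beta-arrestin moving into spots after receptor activation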
# [19] = molecular target: Mu-type opioid receptor (Homo sapiens, UniProt P35372); assay: SAR Analysis of Antagonists of the MOR Receptor using an Image-Based Assay - Set 3. [Related pubchem assays (depositor defined):AID1777, AID1785, AID1786, AID1966, AID2133, AID2136, AID2284, AID2285, AID2420]; type: functional
# [20] = molecular target: X-box-binding protein 1 (Homo sapiens, UniProt P17861); type: functional, Cricetulus griseus;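 also: confirmatory dose-response counter-screen serving a CHOP assay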
# [21] = molecular target: Eukaryotic translation initiation factor 4E (Mus musculus, UniProt P63073); assay: blockers of eIF4G binding by eIF4E – biochemical, TR-FRET, dose response (AID 855); type: functional;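 also: potency for disrupting eIF4E binding to eIF4GI seen as loss of FRET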
# [22] = molecular target: Beta-galactosidase (Escherichia coli, UniProt Q8VNN2); assay: detection-enzyme interference by beta-gal modulators – biochemical, E. coli enzyme, set 3, artefact control for CCR6 antagonist project, dose response (AID 504712); type: functional
# [23] = molecular target: Cystic fibrosis transmembrane conductance regulator/Golgi-associated PDZ and coiled-coil motif-containing protein (Homo sapiens, UniProt P13569+Q9HD26); assay: potency against CAL PDZ-peptide interaction – biochemical, fluorescence polarization, Cerulean-tagged CAL PDZ, cherry-picks, dose response (AID 504773)
# [24] = molecular target: Induced myeloid leukemia cell differentiation protein Mcl-1 (Homo sapiens, UniProt Q07820); type: functional
# [25] = system: INS1; assay: INS-1E survival protection against cytokine death – cell-based, luminescence, retest, dose response (AID 449756); type: functional; conditions: Rattus norvegicus;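 also: cell death triggered by IL-1 beta plus TNF-alpha plus IFN-gamma mixture; protective hits raise ATP signal compared with cytokine alone wells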
# T1 sequence (Q9Y2R2 whole entry): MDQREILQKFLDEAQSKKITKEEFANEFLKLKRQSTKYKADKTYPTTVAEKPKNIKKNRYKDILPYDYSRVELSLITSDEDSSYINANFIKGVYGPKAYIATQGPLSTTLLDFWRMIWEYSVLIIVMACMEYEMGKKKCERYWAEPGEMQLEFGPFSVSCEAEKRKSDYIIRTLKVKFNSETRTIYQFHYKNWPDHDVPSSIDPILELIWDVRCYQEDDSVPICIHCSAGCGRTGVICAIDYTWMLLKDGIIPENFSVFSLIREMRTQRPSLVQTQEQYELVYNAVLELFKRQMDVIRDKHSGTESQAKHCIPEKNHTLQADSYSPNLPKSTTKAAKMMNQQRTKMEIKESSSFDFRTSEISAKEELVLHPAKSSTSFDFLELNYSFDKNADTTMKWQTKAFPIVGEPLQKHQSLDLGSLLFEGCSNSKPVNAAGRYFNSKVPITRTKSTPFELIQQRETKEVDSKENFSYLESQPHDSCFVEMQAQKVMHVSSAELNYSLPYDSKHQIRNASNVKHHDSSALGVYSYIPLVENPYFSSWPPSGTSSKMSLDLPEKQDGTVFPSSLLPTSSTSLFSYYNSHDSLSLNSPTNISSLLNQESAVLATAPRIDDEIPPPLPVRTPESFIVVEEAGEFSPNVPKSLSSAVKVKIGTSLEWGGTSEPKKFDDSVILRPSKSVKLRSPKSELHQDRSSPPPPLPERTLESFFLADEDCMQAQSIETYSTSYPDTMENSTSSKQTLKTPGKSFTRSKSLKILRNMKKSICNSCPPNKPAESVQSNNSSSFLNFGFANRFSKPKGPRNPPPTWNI
# T7 sequence (P41145 whole entry): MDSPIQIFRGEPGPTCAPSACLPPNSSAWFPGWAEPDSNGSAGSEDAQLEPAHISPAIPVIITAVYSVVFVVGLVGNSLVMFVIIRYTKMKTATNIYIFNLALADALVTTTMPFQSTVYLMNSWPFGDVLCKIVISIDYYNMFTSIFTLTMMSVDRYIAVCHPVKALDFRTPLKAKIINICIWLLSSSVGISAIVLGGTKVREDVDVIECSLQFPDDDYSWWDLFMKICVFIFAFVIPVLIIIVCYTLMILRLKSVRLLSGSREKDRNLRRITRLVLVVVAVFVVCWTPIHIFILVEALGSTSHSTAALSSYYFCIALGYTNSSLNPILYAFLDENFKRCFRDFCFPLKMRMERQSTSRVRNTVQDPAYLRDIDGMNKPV
# Chain of X-box-binding protein 1 (P17861 whole entry): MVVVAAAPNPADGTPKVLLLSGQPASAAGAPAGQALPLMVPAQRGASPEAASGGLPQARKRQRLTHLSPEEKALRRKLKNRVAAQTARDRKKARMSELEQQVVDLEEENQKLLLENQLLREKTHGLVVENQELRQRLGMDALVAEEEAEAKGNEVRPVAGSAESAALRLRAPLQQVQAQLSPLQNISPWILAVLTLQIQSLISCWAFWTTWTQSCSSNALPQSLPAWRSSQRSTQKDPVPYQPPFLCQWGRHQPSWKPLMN
# Chain of Mu-type opioid receptor (P35372 whole entry): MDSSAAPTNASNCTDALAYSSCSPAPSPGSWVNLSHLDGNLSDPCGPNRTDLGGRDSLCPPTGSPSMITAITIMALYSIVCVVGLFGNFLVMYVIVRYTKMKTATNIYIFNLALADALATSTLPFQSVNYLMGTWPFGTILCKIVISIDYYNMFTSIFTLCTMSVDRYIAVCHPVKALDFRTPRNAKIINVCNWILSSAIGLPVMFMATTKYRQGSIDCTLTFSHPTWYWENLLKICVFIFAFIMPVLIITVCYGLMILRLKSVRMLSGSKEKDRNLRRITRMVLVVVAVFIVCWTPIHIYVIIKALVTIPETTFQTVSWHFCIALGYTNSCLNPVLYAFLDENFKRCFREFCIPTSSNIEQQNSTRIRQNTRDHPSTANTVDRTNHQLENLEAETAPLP
# Chain of Delta-type opioid receptor (P41143 whole entry): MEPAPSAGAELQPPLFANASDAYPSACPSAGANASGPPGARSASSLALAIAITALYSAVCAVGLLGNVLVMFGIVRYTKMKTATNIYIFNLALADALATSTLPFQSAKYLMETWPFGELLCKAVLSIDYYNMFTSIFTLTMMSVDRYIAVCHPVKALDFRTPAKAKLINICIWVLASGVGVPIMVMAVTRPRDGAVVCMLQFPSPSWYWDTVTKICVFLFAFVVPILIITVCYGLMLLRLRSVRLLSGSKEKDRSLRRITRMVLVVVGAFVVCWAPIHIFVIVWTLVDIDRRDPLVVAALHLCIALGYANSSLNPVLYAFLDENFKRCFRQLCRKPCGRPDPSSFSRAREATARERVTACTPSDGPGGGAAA
# Chain of Eukaryotic translation initiation factor 4E (P63073 whole entry): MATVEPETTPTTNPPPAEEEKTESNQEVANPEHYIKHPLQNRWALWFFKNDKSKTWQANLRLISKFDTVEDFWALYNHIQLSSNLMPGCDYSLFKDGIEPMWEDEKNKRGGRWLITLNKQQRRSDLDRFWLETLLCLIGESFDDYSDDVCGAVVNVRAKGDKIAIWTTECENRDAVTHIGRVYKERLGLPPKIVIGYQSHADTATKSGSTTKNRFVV
# Chain of Cystic fibrosis transmembrane conductance regulator/Golgi-associated PDZ and coiled-coil motif-containing protein (P13569 whole entry, other chains not shown): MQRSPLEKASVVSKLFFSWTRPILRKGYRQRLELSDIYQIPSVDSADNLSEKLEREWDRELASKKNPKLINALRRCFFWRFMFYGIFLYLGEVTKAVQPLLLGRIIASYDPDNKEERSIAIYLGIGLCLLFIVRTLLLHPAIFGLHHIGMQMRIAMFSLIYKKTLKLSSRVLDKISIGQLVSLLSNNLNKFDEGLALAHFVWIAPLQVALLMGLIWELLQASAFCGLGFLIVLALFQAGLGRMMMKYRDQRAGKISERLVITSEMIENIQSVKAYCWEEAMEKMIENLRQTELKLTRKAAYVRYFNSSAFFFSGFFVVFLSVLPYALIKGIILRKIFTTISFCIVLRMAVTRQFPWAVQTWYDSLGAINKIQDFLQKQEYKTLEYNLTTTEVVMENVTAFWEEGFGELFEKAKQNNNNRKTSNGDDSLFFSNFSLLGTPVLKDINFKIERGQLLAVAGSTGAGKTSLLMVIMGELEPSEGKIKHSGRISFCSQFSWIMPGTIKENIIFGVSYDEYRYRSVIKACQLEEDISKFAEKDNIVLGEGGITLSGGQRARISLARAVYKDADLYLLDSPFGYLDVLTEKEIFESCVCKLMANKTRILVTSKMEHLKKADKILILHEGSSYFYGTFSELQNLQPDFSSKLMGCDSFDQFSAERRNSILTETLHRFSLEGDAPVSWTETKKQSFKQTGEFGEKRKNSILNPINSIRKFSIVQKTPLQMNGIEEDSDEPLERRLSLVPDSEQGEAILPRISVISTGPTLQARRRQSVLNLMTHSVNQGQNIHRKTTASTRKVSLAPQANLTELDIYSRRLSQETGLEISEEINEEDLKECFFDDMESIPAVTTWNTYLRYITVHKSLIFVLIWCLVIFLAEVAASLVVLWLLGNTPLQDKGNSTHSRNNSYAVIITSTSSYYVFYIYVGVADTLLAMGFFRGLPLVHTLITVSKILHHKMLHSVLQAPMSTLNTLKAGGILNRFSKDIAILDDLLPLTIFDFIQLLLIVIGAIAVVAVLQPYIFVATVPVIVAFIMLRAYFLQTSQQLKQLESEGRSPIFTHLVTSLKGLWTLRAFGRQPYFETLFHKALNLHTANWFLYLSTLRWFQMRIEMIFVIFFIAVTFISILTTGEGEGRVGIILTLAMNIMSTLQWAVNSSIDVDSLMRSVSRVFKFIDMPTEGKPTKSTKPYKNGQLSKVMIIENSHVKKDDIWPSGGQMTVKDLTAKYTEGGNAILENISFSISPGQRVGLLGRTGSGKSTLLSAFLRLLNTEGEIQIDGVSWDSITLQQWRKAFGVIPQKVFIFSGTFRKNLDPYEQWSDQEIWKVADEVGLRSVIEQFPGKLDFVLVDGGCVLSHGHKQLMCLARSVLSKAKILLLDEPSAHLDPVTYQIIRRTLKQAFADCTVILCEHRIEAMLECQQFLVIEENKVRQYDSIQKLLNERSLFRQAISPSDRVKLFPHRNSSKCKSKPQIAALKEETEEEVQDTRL
# Chain of Polyadenylate-binding protein 1 (P11940 whole entry, the tested form may be a part): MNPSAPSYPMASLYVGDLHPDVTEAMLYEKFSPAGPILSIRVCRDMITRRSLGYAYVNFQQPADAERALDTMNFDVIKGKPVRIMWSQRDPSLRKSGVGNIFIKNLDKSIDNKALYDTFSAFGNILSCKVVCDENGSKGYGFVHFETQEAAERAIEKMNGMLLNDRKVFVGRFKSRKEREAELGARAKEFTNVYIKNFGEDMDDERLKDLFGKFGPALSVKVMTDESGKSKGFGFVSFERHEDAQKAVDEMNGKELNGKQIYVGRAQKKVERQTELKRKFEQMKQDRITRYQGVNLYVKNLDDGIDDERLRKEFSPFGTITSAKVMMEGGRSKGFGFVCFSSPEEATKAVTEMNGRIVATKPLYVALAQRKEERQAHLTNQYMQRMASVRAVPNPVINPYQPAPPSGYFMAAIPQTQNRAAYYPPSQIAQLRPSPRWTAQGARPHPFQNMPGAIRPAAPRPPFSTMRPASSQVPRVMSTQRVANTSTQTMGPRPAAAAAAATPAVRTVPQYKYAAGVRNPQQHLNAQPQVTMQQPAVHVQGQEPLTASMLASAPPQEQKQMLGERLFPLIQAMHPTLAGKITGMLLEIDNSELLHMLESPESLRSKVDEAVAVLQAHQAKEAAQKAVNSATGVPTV
structure (smiles),measurement,setting,value
CCc1ccc(-c2nc(C(N)=O)c3nc(O)n(-c4ccccc4OC)c3n2)cc1,EC50,[1],0.185 µM (active)
same,EC50,[2],8.19 µM (active)
same,IC50,[3],12.5 µM (active)
CCCCCOc1ccc(NC(=O)C(=O)NCCCn2ccnc2)cc1,IC50,[4],> 80 µM (inactive)
CCN(CCO)Cc1csc2ccc(C(C)(C)C)cc12,IC50,[5],> 79.4 µM (inactive)
same,IC50,[6],> 79.4 µM (inactive)
same,IC50,[7],> 79.4 µM (inactive)
COc1ccc(NC(=O)CSc2ccc(-c3ccco3)nn2)cc1OC,IC50,[8],73.8 µM (active)
same,IC50,[9],13.6 µM (active)
same,IC50,[10],> 100 µM (inactive)
CCc1cc[n+](-c2[n-]c(=O)sc2C=O)cc1,EC50,[11],16.7 µM (active)
same,AC50,[12],73.5 µM (active)
same,AC50,[13],141 µM (active)
same,EC50,[14],11.8 µM (active)
Cc1ccc(-c2nnc(NC(=O)C(C)Oc3ccccc3)o2)cc1C (stereo unspecified),EC50,[15],2.6 µM (active)
Cc1ccc(S(=O)(=O)NCc2ccc(C(=O)NC3CCCN(Cc4ccccc4)C3)cc2)cc1 (stereo unspecified),IC50,[16],> 32 µM (inactive)
same,IC50,[17],18.6 µM (inactive)
same,IC50,[18],> 32 µM (inactive)
same,IC50,[19],6.75 µM (active)
COCCn1/c(=N/C(=O)/C=C/c2cccs2)sc2cc(NC(C)=O)ccc21,Absolute IC50 (XBP1),[20],10 µM
CCc1ccc(S(=O)(=O)/N=C2/C=C(Sc3nc[nH]n3)C(=O)c3ccccc32)cc1,IC50,[21],> 64 µM (inactive)
same,IC50,[22],> 66.6 µM (inactive)
same,AC50,[23],23.1 µM (active)
same,IC50,[24],5.9 µM (active)
same,AC50,[25],7.93 µM (active)
same,IC50,[9],2.46 µM (active)
